According to patent US12544428B2, “Controlled-release CNP agonists with reduced side-effects” (ASCENDIS PHARMA GROWTH DISORDERS A/S, priority 2016, dated 2026):

Assays:
NPR-C = molecular target: T1, NPR-C (Homo sapiens, UniProt P17342); experiment: NPR-C affinity assay; format: binding; details: residual NPR-C affinity, NPR-C expressing Hek293 cells, competition with fluorescein-labelled CNP 27d
T1 construct: expressed in transfected cells; host or cells: Hek293, lentiviral transduction, CMV promoter, puromycin selection
T1 sequence (P17342 27-541): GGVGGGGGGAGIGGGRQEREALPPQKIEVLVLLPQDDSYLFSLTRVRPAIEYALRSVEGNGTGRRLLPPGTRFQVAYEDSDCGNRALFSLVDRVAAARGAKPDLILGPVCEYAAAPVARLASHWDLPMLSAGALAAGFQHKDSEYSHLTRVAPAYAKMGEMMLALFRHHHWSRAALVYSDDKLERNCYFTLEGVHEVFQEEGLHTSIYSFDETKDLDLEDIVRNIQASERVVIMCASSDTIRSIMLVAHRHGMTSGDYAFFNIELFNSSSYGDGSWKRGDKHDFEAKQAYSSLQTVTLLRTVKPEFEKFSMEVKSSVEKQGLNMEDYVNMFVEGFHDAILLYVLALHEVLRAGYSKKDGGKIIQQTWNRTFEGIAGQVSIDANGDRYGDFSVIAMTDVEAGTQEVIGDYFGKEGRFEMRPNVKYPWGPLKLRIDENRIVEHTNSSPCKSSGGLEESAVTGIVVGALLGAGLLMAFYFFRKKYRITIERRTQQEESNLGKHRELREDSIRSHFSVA

NPR-B receptor = molecular target: T2, NPR-B receptor (Mus musculus, UniProt Q6VVW5); experiment: Functional cGMP stimulation in NIH-3T3 cells with CNP variants; format: cell-based, murine; details: residual NPR-B activity vs non-PEGylated CNP-38, cGMP
T2 construct: These cells express endogenously the NPR-B receptor on the cell surface; endogenous in cells; host or cells: NIH-3T3 (murine embryo fibroblast)
T2 sequence (Q6VVW5 23-1047 limits assumed): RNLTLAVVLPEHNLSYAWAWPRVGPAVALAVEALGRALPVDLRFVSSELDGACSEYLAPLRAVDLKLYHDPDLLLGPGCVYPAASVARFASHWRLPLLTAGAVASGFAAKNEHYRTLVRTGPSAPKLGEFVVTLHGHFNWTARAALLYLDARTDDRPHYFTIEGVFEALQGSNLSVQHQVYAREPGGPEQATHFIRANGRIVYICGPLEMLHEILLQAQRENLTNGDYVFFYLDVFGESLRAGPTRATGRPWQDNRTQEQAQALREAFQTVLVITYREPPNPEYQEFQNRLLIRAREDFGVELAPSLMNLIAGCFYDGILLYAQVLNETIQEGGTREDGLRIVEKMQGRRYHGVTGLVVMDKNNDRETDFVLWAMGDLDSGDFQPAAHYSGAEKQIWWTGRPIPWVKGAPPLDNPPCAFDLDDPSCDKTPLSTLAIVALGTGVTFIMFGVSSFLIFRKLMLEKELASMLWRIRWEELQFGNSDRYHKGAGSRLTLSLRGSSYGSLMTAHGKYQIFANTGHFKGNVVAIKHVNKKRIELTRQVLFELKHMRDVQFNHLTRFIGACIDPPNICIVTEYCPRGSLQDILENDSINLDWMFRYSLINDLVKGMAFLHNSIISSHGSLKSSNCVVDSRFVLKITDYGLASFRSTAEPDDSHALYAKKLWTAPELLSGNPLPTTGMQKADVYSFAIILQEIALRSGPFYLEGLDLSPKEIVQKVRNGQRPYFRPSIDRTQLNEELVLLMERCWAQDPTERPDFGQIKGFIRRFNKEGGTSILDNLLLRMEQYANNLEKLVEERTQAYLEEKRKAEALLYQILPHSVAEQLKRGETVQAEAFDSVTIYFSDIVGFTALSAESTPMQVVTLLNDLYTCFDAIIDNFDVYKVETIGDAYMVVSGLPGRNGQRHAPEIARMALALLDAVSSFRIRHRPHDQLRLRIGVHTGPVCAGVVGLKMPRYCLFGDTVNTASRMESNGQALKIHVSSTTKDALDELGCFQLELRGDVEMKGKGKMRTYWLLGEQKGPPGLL
Description: As used herein “EC50” with regard to controlled-release CNP agonist and CNP agonist refers to the concentration of controlled-release CNP agonist and CNP agonist with which a half-maximum cGMP production of NPR-B is elicited. NPR-B activity in the form of its EC50 of the controlled-release CNP agonist, of the released CNP agonist and of CNP-22 is measured by cultivating NIH-3T3 (Murine Embryo Fibroblast cell line) cells which express NPR-B on their cell surface, incubating the cells with the controlled-release CNP agonist, the corresponding released CNP agonist or CNP-22, respectively, and determining the intracellular production of the second messenger cGMP with a standard cGMP assay. In particular the assay is performed as follows: • (1) murine NIH-3T3 cells expressing endogenous NPR-B are cultivated in DMEM F-12 medium with 5% FBS and 5 mM glutamine at 37° C. and 5% CO2; • (2) for each assay 50,000 cells are resuspended in Dulbecco's PBS with IBMX and incubated with either the controlled-release CNP agonist, the corresponding released CNP agonist or CNP-22; each in different concentrations; • (3) after incubating for 30 min at 37° C. and 5% CO2, the cells are lysed and cGMP levels are determined; and • (4) generating an EC50 value from the determined cGMP levels.
Functional activity of CNP variants were determined in a cell-based assay with NIH-3T3 cells (Murine Embryo Fibroblast cell line). These cells express endogenously the NPR-B receptor on the cell surface. Stimulation of the NPR-B receptor with CNP leads to intracellular production of the second messenger cGMP which is detected with a commercially available cGMP assay. NIH-3T3 cells were routinely cultured in DMEM F-12 medium with 5% FBS and 5 mM glutamine at 37° C. and 5% CO2. For each assay, 50,000 cells were resuspended in stimulation buffer (Dulbecco's PBS with IBMX) and incubated with the CNP variants in different concentrations. CNP (dilutions were made in PBS with 0.2% BSA). After incubation of 30 min at 37° C. and 5% CO2, the cells were lyzed and cGMP levels were determined with a commercially available cGMP TR-FRET assay (Cisbio, cGMP kit, Cat. No. 62GM2PEB). PEGylated CNP variants were always characterized in comparison with the non-PEGylated version in the same experiment batch. If possible, evaluation of the residual activity was done via the relative EC50-parameter of the resulting dose-response curve (restricted model with common slope).
11i was incubated under physiological conditions (1 mg CNP-38 eq/mL), as described in Example 20. After 7 d, released CNP-38 was isolated by RP-HPLC and analyzed for bioactivity as described in Example 21.

Substance | IC50 of PEGylated CNP-38/IC50 CNP-38 (NPR-C) | EC50 compound/EC50 CNP-38 (NPR-B receptor)
Permanent Lys26 CNP-38 PEG4×10 kDa Conjugate [Compound 12g] | 143 | >>100
Reversible Lys26 CNP-38 PEG2×20 kDa Conjugate [Compound 10f] | 12 | >>100
